According to patent publication US10501479B2, “Benzenesulfonyl-asymmetric ureas and medical uses thereof” (HELSINN HEALTHCARE SA, priority 2016, dated 2019):
Like-named read-outs stand apart in the source and are kept apart here.

Columns and labels:
Format in all cases: cell-based
[1] = target: T1, recombinant human ghrelin receptor (HEK293/GRLN) (Homo sapiens, UniProt Q92847); test: Ghrelin inverse agonist potency (EC50) with IP-1 (IP-One HTRF) assay; conditions: IP-1 assay
T1 construct: expressed in transfected cells
In short: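 IP-1 accumulation was measured by HTRF (IP1-d2/Tb-cryptate, 620/665 nm read after 1 hour at room temperature) following 1 hour of compound treatment at 37° C. Cells were HEK293 stably expressing human ghrelin receptor, plated a day earlier on Matrigel. Inverse agonist potency was reported as EC50.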

[2] = target: T2, GHSR-1a (HEK293/GHSR1a cell line) (Homo sapiens, UniProt Q92847); test: Ghrelin agonist potency (EC50) with calcium FLIPR assay
T2 construct: expressed in transfected cells; host or cells: HEK293/GHSR1a cell line
In short: (§1)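 In this assay, compound alone assesses agonism, while compound co-added with ghrelin at 10 nM assesses antagonism. In both modes the calcium-dye signal is tracked for 2 min from t=20 sec.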

[3] = target: T2, GHSR-1a (HEK293/GHSR1a cell line); test: Ghrelin antagonist potency (IC50) with calcium FLIPR assay, ghrelin 10 nM
In short: as §1

[4] = ghrelin inverse agonist potency, read-out: Activity EC50
[5] = ghrelin agonist potency, read-out: Activity EC50/EMax
[6] = ghrelin antagonist potency, read-out: Activity IC50
[7] = HEK293/GRLN, read-out: Activity EC50 (ghrelin inverse agonist potency)
[8] = HEK293/GHSR1a, read-out: Activity EC50/EMax: EC50 (ghrelin agonist potency)
[9] = HEK293/GHSR1a, ghrelin 10 nM, read-out: Activity IC50 (ghrelin antagonist potency)

T2 sequence (Q92847 whole entry): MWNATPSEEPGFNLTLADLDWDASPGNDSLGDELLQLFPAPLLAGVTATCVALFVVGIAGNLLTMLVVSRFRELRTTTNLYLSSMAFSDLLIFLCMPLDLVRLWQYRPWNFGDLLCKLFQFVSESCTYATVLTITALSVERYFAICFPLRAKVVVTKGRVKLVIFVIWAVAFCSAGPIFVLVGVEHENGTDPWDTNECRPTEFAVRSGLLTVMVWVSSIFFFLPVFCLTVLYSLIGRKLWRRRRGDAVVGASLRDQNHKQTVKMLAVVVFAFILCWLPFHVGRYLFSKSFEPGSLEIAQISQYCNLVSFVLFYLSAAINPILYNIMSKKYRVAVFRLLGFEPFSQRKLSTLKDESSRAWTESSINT
T1 sequence (Q92847 whole entry): as above

| Structure (SMILES) | EC50 [1, 4] | EC50 [2, 5] | IC50 [3, 6] | EC50 [1, 7] | EC50 [2, 8] | IC50 [3, 9] |
| --- | --- | --- | --- | --- | --- | --- |
| O=C(Nc1ccc(S(=O)(=O)Cc2ccc3c(c2)CNC3)cc1)N(O)Cc1ccccc1 [H1502, 1-benzyl-1-hydroxy-3-(4-((isoindolin-5-ylmethyl)sulfonyl)phenyl)urea] | 0.0351 µM | > 30 µM | 0.164 µM | – | – | – |
| CC(NC(=O)Nc1ccc(S(=O)(=O)Cc2ccc3c(c2)C(F)(F)CNC3)cc1)c1ccccc1 (stereo not drawn) [H1545, 1-(4-(((4,4-difluoro-1,2,3,4-tetrahydroisoquinolin-6-yl)methyl)sulfonyl)phenyl)-3-(1-phenylethyl)urea] | 0.0191 µM | > 30 µM | 1.72 µM | – | – | – |
| COc1cc(S(=O)(=O)Cc2cc(F)c3c(c2)CCNC3)ccc1NC(=O)NC(C)c1cccc(Cl)c1Cl (stereo not drawn) [H1424, 1-(1-(2,3-dichlorophenyl)ethyl)-3-(4-(((8-fluoro-1,2,3,4-tetrahydroisoquinolin-6-yl)methyl)sulfonyl)-2-methoxyphenyl)urea] | – | – | – | 0.0089 µM | > 30 µM | 0.0154 µM |
| CC(NC(=O)Nc1ccc(S(=O)(=O)Cc2ccc3c(c2)CN(C)C3)c(-c2ncco2)c1)c1ccccc1 (stereo not drawn) [H1508, 1-(4-(((2-methylisoindolin-5-yl)methyl)sulfonyl)-3-(oxazol-2-yl)phenyl)-3-(1-phenylethyl)urea] | 0.03 µM | > 30 µM | 0.0618 µM | – | – | – |
| COc1cccc(OC)c1C(C)NC(=O)Nc1ccc(S(=O)(=O)Cc2ccc3c(c2)CN(C)C3)cc1 (stereo not drawn) [H1451, 1-(1-(2,6-dimethoxyphenyl)ethyl)-3-(4-(((2-methylisoindolin-5-yl)methyl)sulfonyl)phenyl)urea] | – | – | – | 0.0333 µM | > 30 µM | 0.0685 µM |
| CNC(=O)c1cc(NC(=O)NC(C)c2ccccc2)ccc1S(=O)(=O)Cc1ccc2c(c1)CNC2 (stereo not drawn) [H1529, 2-((isoindolin-5-ylmethyl)sulfonyl)-N-methyl-5-(3-(1-phenylethyl)ureido)benzamide] | 0.0278 µM | > 30 µM | 0.0474 µM | – | – | – |
| COc1ccc(C(C)NC(=O)Nc2ccc(S(=O)(=O)Cc3ccc4c(c3)CNC4)cc2)cc1 (stereo not drawn) [H1298, 1-(4-((isoindolin-5-ylmethyl)sulfonyl)phenyl)-3-(1-(4-methoxyphenyl)ethyl)urea] | – | – | – | 0.115 µM | > 30 µM | 0.506 µM |
| C[C@@H](NC(=O)Nc1ccc(S(=O)(=O)Cc2ccc3c(c2)CN(C)C3(C)C)cc1)c1ccccc1 [H1357, (R)-1-(1-phenylethyl)-3-(4-(((1,1,2-trimethylisoindolin-5-yl)methyl)sulfonyl)phenyl)urea] | – | – | – | 0.036 µM | > 30 µM | 0.057 µM |
| COc1cc(S(=O)(=O)Cc2nc3c(s2)CNC3)ccc1NC(=O)N[C@@H](C)c1ccccc1 [H1463, (S)-1-(4-(((5,6-dihydro-4H-pyrrolo[3,4-d]thiazol-2-yl)methyl)sulfonyl)-2-methoxyphenyl)-3-(1-phenylethyl)urea] | 0.289 µM | > 30 µM | 1.15 µM | – | – | – |
| CC(c1ccccc1)N(C)C(=O)Nc1ccc(S(=O)(=O)Cc2ccc3c(c2)CNC3)cc1O (stereo not drawn) [H1460, 3-(2-hydroxy-4-((isoindolin-5-ylmethyl)sulfonyl)phenyl)-1-methyl-1-(1-phenylethyl)urea] | 0.163 µM | > 30 µM | 0.536 µM | – | – | – |
| CC(NC(=O)Nc1ccc(S(=O)(=O)Cc2ccc3c(c2)C(F)(F)CN(C)C3)cc1)c1cccc(Cl)c1Cl (stereo not drawn) [H1548, 1-(1-(2,3-dichlorophenyl)ethyl)-3-(4-(((4,4-difluoro-2-methyl-1,2,3,4-tetrahydroisoquinolin-6-yl)methyl)sulfonyl)phenyl)urea] | 0.132 µM | > 30 µM | 0.655 µM | – | – | – |
| COC(=O)c1cc(S(=O)(=O)Cc2ccc3c(c2)CN(C)C3)ccc1NC(=O)NC(C)c1ccccc1 (stereo not drawn) [H1466, methyl 5-(((2-methylisoindolin-5-yl)methyl)sulfonyl)-2-(3-(1-phenylethyl)ureido)benzoate] | 0.0168 µM | > 30 µM | 0.0724 µM | – | – | – |
| CN1CCc2cc(CS(=O)(=O)c3ccc(NC(=O)NCc4cccc(Cl)c4Cl)cc3)ccc2C1 [H1349, 1-(2,3-dichlorobenzyl)-3-(4-(((2-methyl-1,2,3,4-tetrahydroisoquinolin-6-yl)methyl)sulfonyl)phenyl)urea] | – | – | – | 0.029 µM | > 30 µM | 0.0153 µM |
| COc1cc(S(=O)(=O)Cc2ccc(CO)cc2)ccc1NC(=O)NC(C)c1c(F)cccc1F (stereo not drawn) [H1432, 1-(1-(2,6-difluorophenyl)ethyl)-3-(4-((4-(hydroxymethyl)benzyl)sulfonyl)-2-methoxyphenyl)urea] | – | – | – | 0.367 µM | > 30 µM | 5.5 µM |
| CC(=O)N1CC(NC(=O)Nc2ccc(S(=O)(=O)Cc3ccc4c(c3)CN(C)C4)cc2)c2ccccc21 (stereo not drawn) [H1354, 1-(1-acetylindolin-3-yl)-3-(4-(((2-methylisoindolin-5-yl)methyl)sulfonyl)phenyl)urea] | – | – | – | 8.61 µM | > 30 µM | 8.9 µM |
| CC(c1ccccc1)N(O)C(=O)Nc1ccc(S(=O)(=O)Cc2ccc3c(c2)CN(C)C3)cc1 (stereo not drawn) [H1471, 1-hydroxy-3-(4-(((2-methylisoindolin-5-yl)methyl)sulfonyl)phenyl)-1-(1-phenylethyl)urea] | 0.00389 µM | > 30 µM | 0.0118 µM | – | – | – |
| CC(=O)Oc1ccc(C(C)NC(=O)Nc2ccc(S(=O)(=O)Cc3ccc4c(c3)CNC4)cc2)cc1 (stereo not drawn) [H1310, 4-(1-(3-(4-((isoindolin-5-ylmethyl)sulfonyl)phenyl)ureido)ethyl)phenylacetate] | – | – | – | 0.184 µM | > 30 µM | 0.262 µM |
| COc1cc(S(=O)(=O)Cc2cc3c(cc2F)CNCC3)ccc1NC(=O)NC(C)c1cccc(Cl)c1Cl (stereo not drawn) [H1439, 1-(1-(2,3-dichlorophenyl)ethyl)-3-(4-(((7-fluoro-1,2,3,4-tetrahydroisoquinolin-6-yl)methyl)sulfonyl)-2-methoxyphenyl)urea] | – | – | – | 0.0141 µM | > 30 µM | 0.0124 µM |
| COc1ccc(C(C)NC(=O)Nc2ccc3c(c2)C=C(c2ccc4c(c2)CN(Cc2ccccc2)C4)S3(=O)=O)cc1 (stereo not drawn) [H1296, 1-(2-(2-benzylisoindolin-5-yl)-1,1-dioxidobenzo[b]thiophen-5-yl)-3-(1-(4-methoxyphenyl)ethyl)urea] | – | – | – | 4.92 µM | 13.2 µM | > 30 µM |
| CC(NC(=O)Nc1ccc(S(=O)(=O)Cc2ccc3c(c2)C(O)CC3)cc1)c1ccccc1 (stereo not drawn) [H1293, 1-(4-(((3-hydroxy-2,3-dihydro-1H-inden-5-yl)methyl)sulfonyl)phenyl)-3-(1-phenylethyl)urea] | – | – | – | 0.93 µM | > 30 µM | 5.68 µM |
| O=C(NCc1cccnc1)Nc1ccc(S(=O)(=O)Cc2ccc3c(c2)CNC3)cc1 [H1301, 1-(4-((isoindolin-5-ylmethyl)sulfonyl)phenyl)-3-(pyridin-3-ylmethyl)urea] | – | – | – | 1.14 µM | > 30 µM | 4.45 µM |
| COc1cc(S(=O)(=O)Cc2ccc3c(c2)CN(C)C3)ccc1NC(=O)NC(C)c1c(F)cccc1F (stereo not drawn) [H1437, 1-(1-(2,6-difluorophenyl)ethyl)-3-(2-methoxy-4-(((2-methylisoindolin-5-yl)methyl)sulfonyl)phenyl)urea] | – | – | – | 0.01 µM | > 30 µM | 0.0243 µM |
| CC(NC(=O)Nc1ccc(S(=O)(=O)Cc2ccc3c(c2)CNC3)cc1Br)c1ccccc1 (stereo not drawn) [H1485, 1-(2-bromo-4-((isoindolin-5-ylmethyl)sulfonyl)phenyl)-3-(1-phenylethyl)urea] | 0.0102 µM | > 30 µM | 0.0191 µM | – | – | – |
| COc1cc(S(=O)(=O)Cc2ccc3c(c2)CCN(C)C3)ccc1NC(=O)N(O)C(C)c1ccccc1 (stereo not drawn) [H1525, 1-hydroxy-3-(2-methoxy-4-(((2-methyl-1,2,3,4-tetrahydroisoquinolin-6-yl)methyl)sulfonyl)phenyl)-1-(1-phenylethyl)urea] | 0.0255 µM | > 30 µM | 0.0374 µM | – | – | – |
| CC(NC(=O)N(O)c1ccc(S(=O)(=O)Cc2ccc3c(c2)CN(C)C3)cc1)c1ccccc1 (stereo not drawn) [H1458, 1-hydroxy-1-(4-(((2-methylisoindolin-5-yl)methyl)sulfonyl)phenyl)-3-(1-phenylethyl)urea] | 0.288 µM | > 30 µM | 1.17 µM | – | – | – |
| CC(NC(=O)Nc1ccc(S(=O)(=O)CC2CCCN(C(C)C)C2)cc1)c1cccc(Cl)c1Cl (stereo not drawn) [H1376, 1-(1-(2,3-dichlorophenyl)ethyl)-3-(4-(((1-isopropylpiperidin-3-yl)methyl)sulfonyl)phenyl)urea] | – | – | – | 0.631 µM | > 30 µM | 6.89 µM |
| CC(NC(=O)Nc1ccc(S(=O)(=O)Cc2ccc3c(c2)CNC3)cc1)c1ccccn1 (stereo not drawn) [H1289, 1-(4-((isoindolin-5-ylmethyl)sulfonyl)phenyl)-3-(1-(pyridin-2-yl)ethyl)urea] | – | – | – | 0.161 µM | 0.147 µM | 0.542 µM |
| COc1cc(S(=O)(=O)Cc2ccc(CO)cc2)ccc1NC(=O)NC(C)c1cccc(Cl)c1Cl (stereo not drawn) [H1434, 1-(1-(2,3-dichlorophenyl)ethyl)-3-(4-((4-(hydroxymethyl)benzyl)sulfonyl)-2-methoxyphenyl)urea] | – | – | – | 0.0612 µM | > 30 µM | 0.857 µM |
